Measured values: patent US20110039762A1, “TARGETED ANTIMICROBIAL MOIETIES” (C3 JIAN, INC., priority 2009, published 2011)
“Also recorded” adds a separate entry of the source.

Assays:
MRSA = experiment: Kill or inhibit growth/proliferation; morphology, biofilm and growth disruption (Tables 5, 6); assay type: cell-based, Methicillin-resistant Staphylococcus aureus; set-up: key: A: Peptide aggregates; B: Less hyphal formation; Clumps; Diffuse clumps and small polyps; F: Diffuse growth; H: Thin; I: Growth inhibition; Microcolony formation; Rippled; Small polyps; Thick; W: Halo formation on top, microlonies on bottom; note: test concentration or dose not given here
microorganisms = experiment: Peptides having multiple activities (targeting/binding, antimicrobial, growth or phenotype altering)
Description: In certain embodiments, peptides described herein can have multiple activities. Thus for example, a peptide can have both binding/targeting activity and antimicrobial activity. Such peptides can be used, e.g., in a chimeric construct, for any or all of these properties. Thus, for example, a peptide designated “B” in Table 8 can be used as a targeting peptide. If it is also designated G or M it can also be used for antimicrobial activity.

M. luteus = experiment: Kill or inhibit growth/proliferation; morphology, biofilm and growth disruption (Tables 5, 6); assay type: cell-based, Micrococcus luteus; set-up: key: A: Peptide aggregates; B: Less hyphal formation; Clumps; Diffuse clumps and small polyps; F: Diffuse growth; H: Thin; I: Growth inhibition; Microcolony formation; Rippled; Small polyps; Thick; W: Halo formation on top, microlonies on bottom; note: test concentration or dose not given here
S. epidermidis = experiment: as above; assay type: cell-based, Staphylococcus epidermidis; set-up: key: A: Peptide aggregates; B: Less hyphal formation; Clumps; Diffuse clumps and small polyps; F: Diffuse growth; H: Thin; I: Growth inhibition; Microcolony formation; Rippled; Small polyps; Thick; W: Halo formation on top, microlonies on bottom
[1] = system: microorganisms (e.g., bacteria, yeasts, fungi); experiment: Targeting peptide binding to target microorganisms (Table 3); conditions: preferably 1x PBS
C. jeikeium = experiment: Kill or inhibit growth/proliferation; morphology, biofilm and growth disruption (Tables 5, 6); assay type: cell-based, Corynebacterium jeikeium; set-up: key: A: Peptide aggregates; B: Less hyphal formation; Clumps; Diffuse clumps and small polyps; F: Diffuse growth; H: Thin; I: Growth inhibition; Microcolony formation; Rippled; Small polyps; Thick; W: Halo formation on top, microlonies on bottom; note: test concentration or dose not given here
B. subtilis = experiment: as above; assay type: cell-based, Bacillus subtilis; set-up: key: A: Peptide aggregates; B: Less hyphal formation; Clumps; Diffuse clumps and small polyps; F: Diffuse growth; H: Thin; I: Growth inhibition; Microcolony formation; Rippled; Small polyps; Thick; W: Halo formation on top, microlonies on bottom
S. pneumoniae = experiment: as above; assay type: cell-based, Streptococcus pneumoniae; set-up: key: A: Peptide aggregates; B: Less hyphal formation; Clumps; Diffuse clumps and small polyps; F: Diffuse growth; H: Thin; I: Growth inhibition; Microcolony formation; Rippled; Small polyps; Thick; W: Halo formation on top, microlonies on bottom
C. jejuni = experiment: as above; assay type: cell-based, Campylobacter jejuni; set-up: key: A: Peptide aggregates; B: Less hyphal formation; Clumps; Diffuse clumps and small polyps; F: Diffuse growth; H: Thin; I: Growth inhibition; Microcolony formation; Rippled; Small polyps; Thick; W: Halo formation on top, microlonies on bottom; note: test concentration or dose not given here
[2] = microorganism the targeting peptide binds, binding in aqueous buffers varied by peptide solubility
[3] = microorganism(s) the targeting peptide binds, peptide binding conducted in aqueous buffers varied by peptide solubility
Throughout, for Organism, effect: test concentration or dose not given here.

Substance | Organism, effect (MRSA) | Activities (microorganisms) | Organism, effect (M. luteus) | Organism, effect (S. epidermidis) | Target(s) [1, 2] | Organism, effect (C. jeikeium) | Organism, effect (B. subtilis) | Target(s) ([1]; microorganism(s) the targeting peptide binds, binding in aqueous buffers depending on peptide solubility) | Target(s) [1, 3] | Organism, effect (S. pneumoniae) | Organism, effect (C. jejuni)
LIQKGLNQTFIVVIRLNNFIKKS [PF-013] | MRSA (R) | G B | M. luteus (D) | S. epidermidis (C) | M. luteus and P. mirabilis and E. coli and P. aeruginosa and MRSA and S. pneumoniae and C. jeikeium and C. jejuni | C. jeikeium (D) |  |  |  |  | 
PF-003: peptide having multiple activities (chain 1 MNNWIKVAQISVTVINEVIDIMKEKQNGGK; chain 2 MNNWIKVAQISVTVINEVIDIMKEKQNGGK; Peptide with targeting and/or antimicrobial activity) | MRSA (R) | G B | M. luteus (A) | S. epidermidis (D) | S. epidermidis and M. luteus and P. mirabilis and C. albicans and MRSA and C. jeikeium | C. jeikeium (A) |  |  |  |  | 
PF-010: peptide having multiple activities (chain 1 MDIDVNKLLQAFVYFKSFEKLRHNNS; chain 2 MDIDVNKLLQAFVYFKSFEKLRHNNS; Peptide with targeting and/or antimicrobial activity) | MRSA (R) | G B | M. luteus (A) | S. epidermidis (S) | S. epidermidis; also recorded: M. luteus; also recorded: E. coli; also recorded: C. albicans | C. jeikeium (A) |  |  |  |  | 
PF-021: peptide having multiple activities (chain 1 FSLNFSKQKYVTVN; chain 2 FSLNFSKQKYVTVN; Peptide with targeting and/or antimicrobial activity) | MRSA (R) | G B | M. luteus (A) | S. epidermidis (A) | S. epidermidis; also recorded: M. luteus; also recorded: P. mirabilis; also recorded: E. coli; also recorded: C. albicans; also recorded: E. faecalis; also recorded: C. jeikeium | C. jeikeium (R) |  |  |  |  | 
PF-025: peptide having multiple activities (chain 1 LLIIFRLWLELKWKNKK; chain 2 LLIIFRLWLELKWKNKK; Peptide with targeting and/or antimicrobial activity) | MRSA (R) | G B | M. luteus (A) | S. epidermidis (S) | S. epidermidis and M. luteus and P. mirabilis and E. coli and P. aeruginosa and MRSA and E. faecalis and C. jejuni | C. jeikeium (A) |  |  |  |  | 
PF-036: peptide having multiple activities (chain 1 ILNRLSRIVSNEVTSLIYSLK; chain 2 ILNRLSRIVSNEVTSLIYSLK; Peptide with targeting and/or antimicrobial activity) | MRSA (R) | G B | M. luteus (A) | S. epidermidis (S) | S. epidermidis and M. luteus and P. mirabilis and E. coli and C. albicans and MRSA and S. pneumoniae and C. jejuni | C. jeikeium (A) |  |  |  |  | 
PF-042: peptide having multiple activities (chain 1 LLLSYFRYTGALLQSLF; chain 2 LLLSYFRYTGALLQSLF; Peptide with targeting and/or antimicrobial activity) | MRSA (R) | G B | M. luteus (C) | S. epidermidis (D) |  | C. jeikeium (S) |  |  |  |  | 
PF-043: peptide having multiple activities (chain 1 MIKNETAYQMNELLVIRSAYAK; chain 2 MIKNETAYQMNELLVIRSAYAK; Peptide with targeting and/or antimicrobial activity) | MRSA (R) | G B | M. luteus (C) | S. epidermidis (D) | M. luteus; also recorded: C. jejuni | C. jeikeium (A) |  |  |  |  | 
PF-052: peptide having multiple activities (chain 1 QELINEAVNLLVKSK; chain 2 QELINEAVNLLVKSK; Peptide with targeting and/or antimicrobial activity) | MRSA (R) | G B | M. luteus (A) | S. epidermidis (S) | S. epidermidis and M. luteus and E. coli and MRSA and E. faecalis and C. jeikeium and C. jejuni | C. jeikeium (D) |  |  |  |  | 
PF-070: peptide having multiple activities (SMVKSEIVDLLNGEDNDD; Peptide with targeting and/or antimicrobial activity) |  | G B |  |  | S. epidermidis; also recorded: C. jejuni |  | B. subtilis (D) |  |  |  | 
PF-076: peptide having multiple activities (LYQYELLSKEEYLKCTLIINQRRNEQK; Peptide with targeting and/or antimicrobial activity) | MRSA (R) | G B | M. luteus (A) | S. epidermidis (S) |  | C. jeikeium (A) |  |  |  |  | 
PF-303 (EYPWSWISEPWPWDKSFYK; Peptide with targeting and/or antimicrobial activity) |  |  |  |  |  |  | B. subtilis (C) |  |  |  | 
PF-306: peptide having multiple activities (GCILPHKKDNYNYIMSKFQDLVKITSKK; Peptide with targeting and/or antimicrobial activity) |  | G B |  |  |  |  | B. subtilis (C) | C. difficile |  |  | 
PF-550: peptide having multiple activities (chain 1 STENGWQEFESYADVGVDPRRYVPL; chain 2 STENGWQEFESYADVGVDPRRYVPL; Peptide with targeting and/or antimicrobial activity) |  | G B |  |  |  |  | B. subtilis (D) |  | S. pneumoniae |  | 
PF-552: peptide having multiple activities (chain 1 ELDKADAALGPAKNLAPLDVINRS; chain 2 ELDKADAALGPAKNLAPLDVINRS; Peptide with targeting and/or antimicrobial activity) |  | G B |  |  |  |  | B. subtilis (D) |  | S. pneumoniae |  | 
PF-554: peptide having multiple activities (chain 1 AKNFLTRTAEEIGEQAVREGNINGP; chain 2 AKNFLTRTAEEIGEQAVREGNINGP; Peptide with targeting and/or antimicrobial activity) |  | G B |  |  |  |  | B. subtilis (D) |  | S. pneumoniae |  | 
PF-567: peptide having multiple activities (chain 1 QQRVKAVDASLSQVSTQVSGAVASA; chain 2 QQRVKAVDASLSQVSTQVSGAVASA; Peptide with targeting and/or antimicrobial activity) | MRSA (D) | G B | M. luteus (C) |  |  | C. jeikeium (C) |  |  | S. epidermidis and P. aeruginosa and C. albicans and MRSA and S. pneumoniae and C. jeikeium | S. pneumoniae (D) | C. jejuni (D)
PF-571 (SDLLYYPNENREDSPAGVVKEVKE; Peptide with targeting and/or antimicrobial activity) |  |  |  |  |  |  | B. subtilis (D) |  |  |  | 
PF-574 (LVKSGKLESPYEHSEHLTLSQEKGLE; Peptide with targeting and/or antimicrobial activity) |  |  |  |  |  |  | B. subtilis (D) |  |  |  | 
